In ChEMBL document CHEMBL1149857, “Novel azaphilones, kasanosins A and B, which are specific inhibitors of eukaryotic DNA polymerases beta and lambda from Talaromyces sp” (Bioorg Med Chem, 2008):
Active and inactive are the calls of the source. The rule behind the calls is not given here.

Columns and labels:
Brassica oleracea = assay: Inhibition of cauliflower DNA polymerase alpha at 100 uM
Escherichia phage T7 = assay: Inhibition of T7 RNA polymerase […] at 100 uM relative to control
Bos taurus = species: Bos taurus; assay: Inhibition of calf DNA polymerase alpha at 100 uM relative to control
[1] = biological target: Polynucleotide kinase (Enterobacteria phage T4) (UniProt P06855); assay: Inhibition of T4 polynucleotide kinase at 100 uM relative to control; conditions: Tequatrovirus T4
[2] = biological target: DNA nucleotidylexotransferase (Bos taurus) (UniProt P06526); assay: Inhibition of calf terminal deoxynucleotidyl transferase
[3] = biological target: DNA topoisomerase 2-alpha (Homo sapiens) (UniProt P11388); assay: Inhibition of human DNA topoisomerase 2 at 100 uM relative to control
[4] = biological target: Inosine-5'-monophosphate dehydrogenase 2 (Mus musculus) (UniProt P24547); assay: Inhibition of mouse IMP dehydrogenase 2 at 100 uM relative to control
[5] = biological target: Deoxyribonuclease-1 (Bos taurus) (UniProt P00639); assay: Inhibition of bovine deoxyribonuclease 1 at 100 uM relative to control
Thermus aquaticus = assay: Inhibition of Thermus aquaticus DNA polymerase at 100 uM
DNA polymerase beta = DNA polymerase beta (Rattus norvegicus, UniProt P06766); assay: Inhibition of rat DNA polymerase beta
[6] = biological target: T1, DNA polymerase subunit gamma-1 (Homo sapiens, UniProt P54098); assay: Inhibition of human DNA polymerase gamma
T1 sequence (P54098 whole entry): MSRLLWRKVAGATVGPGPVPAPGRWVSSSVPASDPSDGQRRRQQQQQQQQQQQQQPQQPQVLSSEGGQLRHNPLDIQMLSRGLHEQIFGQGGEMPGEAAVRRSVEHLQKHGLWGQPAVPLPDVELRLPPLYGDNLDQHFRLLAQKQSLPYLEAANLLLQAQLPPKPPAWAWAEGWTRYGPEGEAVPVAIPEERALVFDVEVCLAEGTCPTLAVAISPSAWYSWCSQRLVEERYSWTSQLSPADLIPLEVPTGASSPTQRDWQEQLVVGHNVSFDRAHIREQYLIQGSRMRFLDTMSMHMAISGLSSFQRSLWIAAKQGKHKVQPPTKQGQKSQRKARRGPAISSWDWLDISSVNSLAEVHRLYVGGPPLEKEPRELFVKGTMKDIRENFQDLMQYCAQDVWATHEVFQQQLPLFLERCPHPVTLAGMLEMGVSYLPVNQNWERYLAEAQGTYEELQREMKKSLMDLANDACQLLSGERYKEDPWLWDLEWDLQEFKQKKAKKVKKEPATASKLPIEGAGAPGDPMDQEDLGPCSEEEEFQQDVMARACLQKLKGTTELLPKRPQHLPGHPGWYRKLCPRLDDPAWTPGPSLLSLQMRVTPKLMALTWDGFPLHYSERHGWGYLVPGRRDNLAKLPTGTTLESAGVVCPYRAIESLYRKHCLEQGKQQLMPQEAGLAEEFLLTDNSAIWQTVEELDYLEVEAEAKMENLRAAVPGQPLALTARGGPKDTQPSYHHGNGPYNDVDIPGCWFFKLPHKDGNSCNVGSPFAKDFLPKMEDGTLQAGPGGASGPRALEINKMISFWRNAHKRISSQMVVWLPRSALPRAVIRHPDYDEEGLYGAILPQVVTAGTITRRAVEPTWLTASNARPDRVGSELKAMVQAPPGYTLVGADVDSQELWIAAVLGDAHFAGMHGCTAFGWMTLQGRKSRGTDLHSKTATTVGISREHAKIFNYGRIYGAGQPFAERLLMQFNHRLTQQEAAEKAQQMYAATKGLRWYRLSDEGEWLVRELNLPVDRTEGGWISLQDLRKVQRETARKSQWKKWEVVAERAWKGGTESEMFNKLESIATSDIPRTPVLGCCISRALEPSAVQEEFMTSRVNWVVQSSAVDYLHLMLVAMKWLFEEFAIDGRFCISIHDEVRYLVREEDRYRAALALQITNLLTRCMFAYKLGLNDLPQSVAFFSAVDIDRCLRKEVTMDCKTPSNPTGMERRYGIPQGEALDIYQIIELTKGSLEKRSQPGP

[7] = biological target: Telomerase reverse transcriptase (Homo sapiens) (UniProt O14746); assay: Inhibition of human telomerase at 100 uM relative to control
Oncorhynchus masou = assay: Inhibition of cherry salmon DNA polymerase delta at 100 uM
Tequatrovirus T4 = assay: Inhibition of T4 DNA polymerase at 100 uM
Escherichia coli = assay: Inhibition of Escherichia coli DNA polymerase 1 Klenow fragment at 100 uM
[8] = biological target: T2, DNA polymerase subunit gamma-1 (Homo sapiens) (UniProt P54098); assay: Inhibition of human DNA polymerase gamma at 100 uM
T2 sequence (whole entry): T1 sequence (P54098 whole entry)

[9] = biological target: Human immunodeficiency virus type 1 reverse transcriptase (Human immunodeficiency virus 1) (UniProt Q72547); assay: Inhibition of HIV1 reverse transcriptase at 100 uM relative to control
[10] = biological target: T3, DNA topoisomerase 1 (Homo sapiens) (UniProt P11387); assay: Inhibition of human DNA topoisomerase 1 at 100 uM relative to control
T3 sequence (whole entry): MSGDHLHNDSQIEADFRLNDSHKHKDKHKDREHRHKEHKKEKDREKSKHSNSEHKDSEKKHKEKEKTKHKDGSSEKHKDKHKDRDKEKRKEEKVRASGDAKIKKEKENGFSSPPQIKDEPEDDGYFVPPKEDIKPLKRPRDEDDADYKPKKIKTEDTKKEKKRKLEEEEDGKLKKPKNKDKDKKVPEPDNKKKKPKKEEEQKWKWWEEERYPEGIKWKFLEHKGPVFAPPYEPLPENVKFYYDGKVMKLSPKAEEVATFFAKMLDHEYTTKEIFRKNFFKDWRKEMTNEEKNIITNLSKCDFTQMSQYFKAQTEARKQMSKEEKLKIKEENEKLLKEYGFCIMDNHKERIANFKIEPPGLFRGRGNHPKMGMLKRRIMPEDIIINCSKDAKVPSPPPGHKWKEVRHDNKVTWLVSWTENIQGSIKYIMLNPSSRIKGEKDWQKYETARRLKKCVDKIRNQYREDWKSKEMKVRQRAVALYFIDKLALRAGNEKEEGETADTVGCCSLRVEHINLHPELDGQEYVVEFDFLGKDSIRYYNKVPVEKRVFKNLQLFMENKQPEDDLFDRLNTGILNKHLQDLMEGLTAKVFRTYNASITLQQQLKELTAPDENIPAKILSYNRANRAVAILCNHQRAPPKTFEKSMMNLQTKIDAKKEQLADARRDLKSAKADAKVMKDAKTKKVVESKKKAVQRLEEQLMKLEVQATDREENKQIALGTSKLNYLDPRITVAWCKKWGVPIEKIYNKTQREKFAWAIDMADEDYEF

[11] = biological target: DNA polymerase beta (Rattus norvegicus) (UniProt P06766); assay: Inhibition of rat DNA polymerase beta at 100 uM

Sequence of DNA topoisomerase 2-alpha (Homo sapiens) (P11388 whole entry): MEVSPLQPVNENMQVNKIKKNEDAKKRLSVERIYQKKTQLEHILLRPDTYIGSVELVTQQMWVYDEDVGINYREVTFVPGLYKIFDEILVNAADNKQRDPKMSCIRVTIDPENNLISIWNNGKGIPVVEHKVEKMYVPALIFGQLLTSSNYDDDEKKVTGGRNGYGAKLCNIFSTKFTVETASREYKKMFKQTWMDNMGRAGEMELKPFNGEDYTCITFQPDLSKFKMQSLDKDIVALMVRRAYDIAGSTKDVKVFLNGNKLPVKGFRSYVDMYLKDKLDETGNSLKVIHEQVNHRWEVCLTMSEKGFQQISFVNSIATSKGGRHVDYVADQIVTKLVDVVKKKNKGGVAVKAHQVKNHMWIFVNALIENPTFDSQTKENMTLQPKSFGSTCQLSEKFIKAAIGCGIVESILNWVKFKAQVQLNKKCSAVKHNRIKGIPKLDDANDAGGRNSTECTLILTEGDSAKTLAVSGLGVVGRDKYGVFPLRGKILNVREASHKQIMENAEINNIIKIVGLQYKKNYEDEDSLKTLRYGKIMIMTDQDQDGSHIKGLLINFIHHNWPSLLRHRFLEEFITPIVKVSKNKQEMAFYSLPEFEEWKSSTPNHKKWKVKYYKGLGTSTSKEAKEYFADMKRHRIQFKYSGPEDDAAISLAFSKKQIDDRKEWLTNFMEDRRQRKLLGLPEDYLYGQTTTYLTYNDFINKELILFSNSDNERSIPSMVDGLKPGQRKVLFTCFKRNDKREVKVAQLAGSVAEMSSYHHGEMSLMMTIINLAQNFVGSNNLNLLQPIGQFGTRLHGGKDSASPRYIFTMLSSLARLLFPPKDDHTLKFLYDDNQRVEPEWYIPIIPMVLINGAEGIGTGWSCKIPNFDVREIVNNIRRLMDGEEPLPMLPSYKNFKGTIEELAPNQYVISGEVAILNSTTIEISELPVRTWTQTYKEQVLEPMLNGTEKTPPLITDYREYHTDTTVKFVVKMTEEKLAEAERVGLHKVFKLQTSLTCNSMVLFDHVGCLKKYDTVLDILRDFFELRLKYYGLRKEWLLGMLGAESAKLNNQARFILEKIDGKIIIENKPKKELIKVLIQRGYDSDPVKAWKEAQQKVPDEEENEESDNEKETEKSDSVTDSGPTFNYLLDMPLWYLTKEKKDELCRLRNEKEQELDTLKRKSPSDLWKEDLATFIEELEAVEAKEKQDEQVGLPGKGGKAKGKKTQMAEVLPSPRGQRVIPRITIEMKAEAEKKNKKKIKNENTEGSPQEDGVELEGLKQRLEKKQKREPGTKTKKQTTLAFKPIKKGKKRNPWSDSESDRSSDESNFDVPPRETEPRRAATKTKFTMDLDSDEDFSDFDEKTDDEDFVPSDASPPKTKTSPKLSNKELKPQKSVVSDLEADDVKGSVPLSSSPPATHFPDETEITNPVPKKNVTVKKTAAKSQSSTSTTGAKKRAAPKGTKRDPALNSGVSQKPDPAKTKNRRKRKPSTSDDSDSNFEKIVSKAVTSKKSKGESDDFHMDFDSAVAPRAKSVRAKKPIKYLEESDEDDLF
Sequence of DNA nucleotidylexotransferase (Bos taurus) (P06526 whole entry): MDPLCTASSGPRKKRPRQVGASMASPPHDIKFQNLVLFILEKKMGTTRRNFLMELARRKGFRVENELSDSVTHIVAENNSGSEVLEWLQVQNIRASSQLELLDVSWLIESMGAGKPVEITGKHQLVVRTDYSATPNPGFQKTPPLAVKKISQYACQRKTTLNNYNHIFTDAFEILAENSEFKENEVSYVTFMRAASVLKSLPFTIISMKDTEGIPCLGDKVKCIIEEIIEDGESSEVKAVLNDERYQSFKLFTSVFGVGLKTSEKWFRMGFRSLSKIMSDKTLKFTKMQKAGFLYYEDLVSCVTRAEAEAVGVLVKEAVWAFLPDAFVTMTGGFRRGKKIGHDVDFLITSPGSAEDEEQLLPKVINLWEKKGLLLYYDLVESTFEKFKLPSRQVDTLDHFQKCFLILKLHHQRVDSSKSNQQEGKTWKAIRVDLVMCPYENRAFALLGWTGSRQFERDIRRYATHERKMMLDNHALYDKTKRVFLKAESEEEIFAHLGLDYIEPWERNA
Sequence of Telomerase reverse transcriptase (Homo sapiens) (O14746 whole entry): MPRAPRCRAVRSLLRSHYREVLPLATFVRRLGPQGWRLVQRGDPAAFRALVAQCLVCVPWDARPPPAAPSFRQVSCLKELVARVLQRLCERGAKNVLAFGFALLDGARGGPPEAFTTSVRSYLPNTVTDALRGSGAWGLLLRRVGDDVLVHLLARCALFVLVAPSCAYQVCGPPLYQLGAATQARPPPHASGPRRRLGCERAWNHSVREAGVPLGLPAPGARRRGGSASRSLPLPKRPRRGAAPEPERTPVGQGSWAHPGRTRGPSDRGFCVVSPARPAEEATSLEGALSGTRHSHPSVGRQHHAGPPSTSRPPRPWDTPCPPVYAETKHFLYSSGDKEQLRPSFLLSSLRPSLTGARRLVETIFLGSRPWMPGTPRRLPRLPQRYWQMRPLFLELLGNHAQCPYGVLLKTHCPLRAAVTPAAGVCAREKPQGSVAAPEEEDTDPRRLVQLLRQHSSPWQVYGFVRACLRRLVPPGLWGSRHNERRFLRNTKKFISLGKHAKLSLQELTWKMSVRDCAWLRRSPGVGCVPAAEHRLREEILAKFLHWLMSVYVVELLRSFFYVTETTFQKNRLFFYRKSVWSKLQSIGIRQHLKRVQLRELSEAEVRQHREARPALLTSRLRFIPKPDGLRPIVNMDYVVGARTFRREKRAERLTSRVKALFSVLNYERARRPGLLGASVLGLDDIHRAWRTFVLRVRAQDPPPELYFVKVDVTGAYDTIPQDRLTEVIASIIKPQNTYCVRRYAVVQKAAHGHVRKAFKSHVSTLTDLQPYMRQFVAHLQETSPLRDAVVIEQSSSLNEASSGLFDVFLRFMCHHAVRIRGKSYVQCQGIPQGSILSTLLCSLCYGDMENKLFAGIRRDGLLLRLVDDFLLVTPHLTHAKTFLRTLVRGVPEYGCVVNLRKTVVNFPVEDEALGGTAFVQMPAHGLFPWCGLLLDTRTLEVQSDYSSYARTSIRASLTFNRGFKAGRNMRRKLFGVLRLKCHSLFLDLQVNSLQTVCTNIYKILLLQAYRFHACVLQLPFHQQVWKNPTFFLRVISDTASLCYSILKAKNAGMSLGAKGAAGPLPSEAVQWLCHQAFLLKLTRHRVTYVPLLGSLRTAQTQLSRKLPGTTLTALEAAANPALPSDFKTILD
Sequence of Deoxyribonuclease-1 (Bos taurus) (P00639 whole entry): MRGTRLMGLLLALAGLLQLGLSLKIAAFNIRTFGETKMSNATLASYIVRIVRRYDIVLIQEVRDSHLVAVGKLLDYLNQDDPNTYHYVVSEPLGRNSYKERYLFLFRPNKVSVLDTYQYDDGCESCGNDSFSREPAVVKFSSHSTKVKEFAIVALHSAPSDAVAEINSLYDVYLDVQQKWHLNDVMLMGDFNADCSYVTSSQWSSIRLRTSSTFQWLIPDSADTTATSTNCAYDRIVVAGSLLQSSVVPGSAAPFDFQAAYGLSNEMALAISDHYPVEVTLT
Sequence of Polynucleotide kinase (Enterobacteria phage T4) (P06855 whole entry): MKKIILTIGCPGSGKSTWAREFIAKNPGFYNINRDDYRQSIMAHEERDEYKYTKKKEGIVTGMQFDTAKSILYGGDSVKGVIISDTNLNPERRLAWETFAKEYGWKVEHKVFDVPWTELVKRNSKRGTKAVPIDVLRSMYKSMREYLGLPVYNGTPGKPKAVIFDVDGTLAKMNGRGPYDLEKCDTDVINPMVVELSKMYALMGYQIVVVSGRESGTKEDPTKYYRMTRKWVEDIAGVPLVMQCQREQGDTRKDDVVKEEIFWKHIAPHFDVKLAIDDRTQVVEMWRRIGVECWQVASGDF
Sequence of Inosine-5'-monophosphate dehydrogenase 2 (Mus musculus) (P24547 whole entry, looked up): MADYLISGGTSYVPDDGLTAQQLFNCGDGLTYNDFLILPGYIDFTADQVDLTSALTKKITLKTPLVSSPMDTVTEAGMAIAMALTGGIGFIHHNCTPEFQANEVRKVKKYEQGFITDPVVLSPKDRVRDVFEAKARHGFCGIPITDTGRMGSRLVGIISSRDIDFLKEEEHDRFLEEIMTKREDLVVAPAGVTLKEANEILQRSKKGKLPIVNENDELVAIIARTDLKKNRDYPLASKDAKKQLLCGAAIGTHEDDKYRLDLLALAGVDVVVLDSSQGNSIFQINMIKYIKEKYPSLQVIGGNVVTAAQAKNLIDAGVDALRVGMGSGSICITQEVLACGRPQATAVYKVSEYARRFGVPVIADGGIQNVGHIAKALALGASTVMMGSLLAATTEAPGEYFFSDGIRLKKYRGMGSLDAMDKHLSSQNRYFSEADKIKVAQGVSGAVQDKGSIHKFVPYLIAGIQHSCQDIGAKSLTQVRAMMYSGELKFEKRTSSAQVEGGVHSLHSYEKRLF

COc1cc(C)c(C(=O)O[C@H]2CC3=C(COC(/C=C/CO)=C3)C(=O)[C@@]2(C)O)c(O)c1 [KASANOSIN A]
Activity (Brassica oleracea): inactive | Activity (Escherichia phage T7): inactive | Activity (Bos taurus): inactive | Activity [1]: inactive | Activity [2]: inactive | Activity [3]: inactive | Activity [4]: inactive | Activity [5]: inactive | Activity (Thermus aquaticus): inactive | IC50 (DNA polymerase beta): 27.3 µM | IC50 [6]: 35 µM | Activity [7]: inactive | Activity (Oncorhynchus masou): inactive | Activity (Tequatrovirus T4): inactive | Activity (Escherichia coli): inactive | Activity [8]: Active | Activity [9]: inactive | Activity [10]: inactive | Activity [11]: Active

COc1cc(C)c(C(=O)O[C@]2(C)C(=O)C3=C(C=C(/C=C/CO)OC3)C[C@@H]2O)c(O)c1 [KASANOSIN B]
Activity (Brassica oleracea): inactive | Activity (Escherichia phage T7): inactive | Activity (Bos taurus): inactive | Activity [1]: inactive | Activity [2]: inactive | Activity [3]: inactive | Activity [4]: inactive | Activity [5]: inactive | Activity (Thermus aquaticus): inactive | IC50 (DNA polymerase beta): 60.1 µM | IC50 [6]: 72.9 µM | Activity [7]: inactive | Activity (Oncorhynchus masou): inactive | Activity (Tequatrovirus T4): inactive | Activity (Escherichia coli): inactive | Activity [8]: Active | Activity [9]: inactive | Activity [10]: inactive | Activity [11]: Active
